Measured values as given in PubChem BioAssay (NCI).
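96-well plates; 48 h exposure; 5 concentrations. Endpoints by linear interpolation between flanking doses. Not reached: highest tested concentration assigned. Definition used: TGI = concentration required for complete inhibition of growth.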

Assays:
Experiment in all cases: NCI-60 cell line screen, 48 h
RXF 393 renal = tested on: RXF 393 renal
SN12C renal = tested on: SN12C renal
HT29 colon = tested on: HT29 colon
SF-539 CNS = tested on: SF-539 CNS
OVCAR-5 ovarian = tested on: OVCAR-5 ovarian
OVCAR-8 ovarian = tested on: OVCAR-8 ovarian
786-0 renal = tested on: 786-0 renal
HOP-62 NSCLC = tested on: HOP-62 NSCLC
TK-10 renal = tested on: TK-10 renal
IGROV1 ovarian = tested on: IGROV1 ovarian
SK-MEL-2 melanoma = tested on: SK-MEL-2 melanoma
SNB-75 CNS = tested on: SNB-75 CNS
OVCAR-3 ovarian = tested on: OVCAR-3 ovarian
HCT-15 colon = tested on: HCT-15 colon
OVCAR-4 ovarian = tested on: OVCAR-4 ovarian
DLD-1 colon = tested on: DLD-1 colon
UO-31 renal = tested on: UO-31 renal
U251 CNS = tested on: U251 CNS
MOLT-4 leukemia = tested on: MOLT-4 leukemia
SNB-78 CNS = tested on: SNB-78 CNS
NCI-H460 lung = tested on: NCI-H460 lung
SK-MEL-5 melanoma = tested on: SK-MEL-5 melanoma
KM12 colon = tested on: KM12 colon
EKVX NSCLC = tested on: EKVX NSCLC
DMS 273 small cell lung = tested on: DMS 273 small cell lung
NCI-H522 lung = tested on: NCI-H522 lung
M14 melanoma = tested on: M14 melanoma
LXFL 529 NSCLC = tested on: LXFL 529 NSCLC
A498 renal = tested on: A498 renal
NCI-H23 lung = tested on: NCI-H23 lung
RPMI-8226 leukemia = tested on: RPMI-8226 leukemia
SK-MEL-28 melanoma = tested on: SK-MEL-28 melanoma
UACC-257 melanoma = tested on: UACC-257 melanoma
HOP-92 NSCLC = tested on: HOP-92 NSCLC
XF 498 CNS = tested on: XF 498 CNS
SF-295 CNS = tested on: SF-295 CNS
UACC-62 melanoma = tested on: UACC-62 melanoma
DMS 114 small cell lung = tested on: DMS 114 small cell lung
NCI-H226 lung = tested on: NCI-H226 lung
ACHN renal = tested on: ACHN renal
SF-268 CNS = tested on: SF-268 CNS
M19-MEL melanoma = tested on: M19-MEL melanoma
SW-620 colon = tested on: SW-620 colon
SR leukemia = tested on: SR leukemia
HCC-2998 colon = tested on: HCC-2998 colon
COLO 205 colon = tested on: COLO 205 colon
SK-OV-3 ovarian = tested on: SK-OV-3 ovarian
SNB-19 CNS = tested on: SNB-19 CNS
A549 NSCLC = tested on: A549 NSCLC
RXF-631 renal = tested on: RXF-631 renal
MALME-3M melanoma = tested on: MALME-3M melanoma
HL-60(TB) leukemia = tested on: HL-60(TB) leukemia
LOX IMVI melanoma = tested on: LOX IMVI melanoma
KM20L2 colon = tested on: KM20L2 colon
HS 578T breast = tested on: HS 578T breast
HCT-116 colon = tested on: HCT-116 colon
NCI/ADR-RES ovarian = tested on: NCI/ADR-RES ovarian
MCF7 breast = tested on: MCF7 breast
DU-145 prostate = tested on: DU-145 prostate
PC-3 prostate = tested on: PC-3 prostate
BT-549 breast = tested on: BT-549 breast
MDA-MB-435 = tested on: MDA-MB-435
T-47D breast = tested on: T-47D breast
CCRF-CEM leukemia = tested on: CCRF-CEM leukemia
HOP-18 NSCLC = tested on: HOP-18 NSCLC
CAKI-1 renal = tested on: CAKI-1 renal
MDA-N = tested on: MDA-N
MDA-MB-231 breast = tested on: MDA-MB-231 breast
K-562 leukemia = tested on: K-562 leukemia

Measured: TGI

CCOc1ccc(OCC(=O)O)c2c1CCCC2=O
not listed: KM20L2 colon | HS 578T breast | HCT-116 colon | NCI/ADR-RES ovarian | MCF7 breast | DU-145 prostate | PC-3 prostate | BT-549 breast | MDA-MB-435 | T-47D breast | CCRF-CEM leukemia | HOP-18 NSCLC | CAKI-1 renal | MDA-N | MDA-MB-231 breast | K-562 leukemia
> 100 µM: all other assays above

COc1ccc(/C=C\c2cc(OC)c(OC)c(OC)c2)cc1OCC(=O)O
80.8 µM: HCT-15 colon
> 58.2 µM: OVCAR-8 ovarian
> 90.2 µM: DLD-1 colon
> 92.7 µM: MDA-MB-231 breast
9.25 µM: HS 578T breast
> 45.6 µM: SNB-19 CNS
75.1 µM: DMS 273 small cell lung
> 91.3 µM: PC-3 prostate
> 94.8 µM: UO-31 renal
12.5 µM: NCI-H23 lung
47.2 µM: DU-145 prostate
55.7 µM: HOP-92 NSCLC
39.6 µM: U251 CNS
48.2 µM: NCI-H226 lung
9.01 µM: NCI-H522 lung
31.5 µM: HCT-116 colon
94 µM: SK-OV-3 ovarian
> 74 µM: KM12 colon
> 58.7 µM: SNB-75 CNS
35.8 µM: SF-295 CNS
3.27 µM: MDA-MB-435
> 83 µM: A498 renal
62.9 µM: M14 melanoma
50.1 µM: SK-MEL-5 melanoma
> 53.9 µM: SK-MEL-2 melanoma
39.2 µM: RXF 393 renal
13.5 µM: MDA-N
11.5 µM: SF-539 CNS
> 86.1 µM: OVCAR-4 ovarian
5.39 µM: NCI/ADR-RES ovarian
> 55.3 µM: NCI-H460 lung
8.25 µM: OVCAR-3 ovarian
23.8 µM: HL-60(TB) leukemia
not listed: XF 498 CNS
> 100 µM: all other assays above

CC12c3ccccc3C(OC=O)(c3ccccc31)C1(C)c3ccccc3C2(OC=O)c2ccccc21
48.6 µM: SR leukemia
68.5 µM: MOLT-4 leukemia
89.1 µM: CCRF-CEM leukemia
not listed: SF-539 CNS | XF 498 CNS | HS 578T breast | NCI/ADR-RES ovarian | MCF7 breast | DU-145 prostate | PC-3 prostate | BT-549 breast | MDA-MB-435 | T-47D breast | MDA-N | MDA-MB-231 breast
> 100 µM: all other assays above

O=C1C=C(Nc2ccc(Cl)cc2C(=O)c2ccccc2)c2ccccc2C1=O
not listed: RPMI-8226 leukemia | HOP-92 NSCLC | M19-MEL melanoma | SR leukemia | HS 578T breast | NCI/ADR-RES ovarian | MCF7 breast | DU-145 prostate | PC-3 prostate | BT-549 breast | MDA-MB-435 | T-47D breast | MDA-N | MDA-MB-231 breast
> 100 µM: all other assays above

C[N+](C)(C)CC(=O)N/N=C(/Cc1cc(=O)oc2cc(O)ccc12)C(=O)Nc1ccc(Cl)cc1
not listed: SNB-75 CNS | HCT-15 colon | U251 CNS | SNB-78 CNS | DMS 273 small cell lung | LXFL 529 NSCLC | HOP-92 NSCLC | XF 498 CNS | NCI-H226 lung | LOX IMVI melanoma | HS 578T breast | NCI/ADR-RES ovarian | MCF7 breast | DU-145 prostate | PC-3 prostate | BT-549 breast | MDA-MB-435 | T-47D breast | HOP-18 NSCLC | MDA-N | MDA-MB-231 breast
> 100 µM: all other assays above

O=Cc1cc2c(cc1-c1cc3c(cc1C=O)OCO3)OCO2
71 µM: SR leukemia
94.1 µM: RXF 393 renal
82.7 µM: CCRF-CEM leukemia
56.3 µM: LOX IMVI melanoma
not listed: XF 498 CNS | RXF-631 renal | HS 578T breast | NCI/ADR-RES ovarian | MCF7 breast | DU-145 prostate | PC-3 prostate | BT-549 breast | MDA-MB-435 | T-47D breast | MDA-N | MDA-MB-231 breast
> 100 µM: all other assays above
